Test results taken from patent publication US20230181570A1, “Transdermal Formulation Containing Apomorphine” (MEDRX CO., LTD., priority 2020, published 2023).
Counter-ions that a name gives are not always drawn.

Experiment: Study of the solubility of apomorphine hydrochloride in various solvents

SMILES: CN1CCc2cccc3c2[C@H]1Cc1ccc(O)c(O)c1-3 [apomorphine hydrochloride]
- solubility (each used alone: water, 1,3-butanediol, polyethylene glycol, propylene glycol, glycerin, propylene carbonate): ≤ 3 % by weight
- apomorphine hydrochloride solution able to be prepared (low molecular weight polyethylene glycol combined with propylene carbonate): 8 % by weight
- solubility in propylene carbonate (propylene carbonate used alone): 0.25 % by weight
- apomorphine hydrochloride solution able to be prepared (propylene glycol and propylene carbonate, weight of propylene glycol five times or more that of propylene carbonate): 10 % by weight
